Data taken from ChEMBL document CHEMBL5291721, “A preclinical secondary pharmacology resource illuminates target-adverse drug reaction associations of marketed drugs” (Nat Commun, 2023).

Key:
[1] = molecular target: T1, Retinoic acid receptor beta (Homo sapiens, UniProt P10826); type: functional, cell-based
T1 sequence (P10826 whole entry): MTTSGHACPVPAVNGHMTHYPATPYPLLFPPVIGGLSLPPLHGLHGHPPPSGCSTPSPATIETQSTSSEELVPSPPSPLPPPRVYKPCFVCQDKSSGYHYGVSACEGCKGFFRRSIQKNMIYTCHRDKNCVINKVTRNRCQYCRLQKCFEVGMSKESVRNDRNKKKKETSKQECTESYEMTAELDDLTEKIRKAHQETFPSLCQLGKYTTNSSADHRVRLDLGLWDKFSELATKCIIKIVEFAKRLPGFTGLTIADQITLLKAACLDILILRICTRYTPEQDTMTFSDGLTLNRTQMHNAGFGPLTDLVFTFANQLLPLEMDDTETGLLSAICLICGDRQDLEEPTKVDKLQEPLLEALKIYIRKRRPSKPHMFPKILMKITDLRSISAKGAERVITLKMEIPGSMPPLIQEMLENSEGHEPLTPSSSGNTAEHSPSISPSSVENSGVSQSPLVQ

[2] = molecular target: T2, Retinoic acid receptor gamma (Homo sapiens, UniProt P13631); type: functional, cell-based
T2 sequence (P13631 whole entry): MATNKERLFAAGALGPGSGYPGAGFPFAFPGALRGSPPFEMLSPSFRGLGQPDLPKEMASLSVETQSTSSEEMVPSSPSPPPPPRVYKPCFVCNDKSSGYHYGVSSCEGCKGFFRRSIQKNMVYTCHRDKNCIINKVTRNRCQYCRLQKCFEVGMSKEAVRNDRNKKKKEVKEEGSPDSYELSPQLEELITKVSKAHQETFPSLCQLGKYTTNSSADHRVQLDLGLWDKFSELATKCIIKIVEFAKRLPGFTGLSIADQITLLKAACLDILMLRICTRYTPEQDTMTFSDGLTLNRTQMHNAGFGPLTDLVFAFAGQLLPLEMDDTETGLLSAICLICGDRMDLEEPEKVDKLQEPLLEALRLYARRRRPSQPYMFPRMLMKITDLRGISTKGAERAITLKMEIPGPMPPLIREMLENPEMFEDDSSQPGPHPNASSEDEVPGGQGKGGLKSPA

Bile acid receptor = molecular target: T3, Bile acid receptor (Homo sapiens, UniProt Q96RI1); type: functional
T3 sequence (Q96RI1 whole entry): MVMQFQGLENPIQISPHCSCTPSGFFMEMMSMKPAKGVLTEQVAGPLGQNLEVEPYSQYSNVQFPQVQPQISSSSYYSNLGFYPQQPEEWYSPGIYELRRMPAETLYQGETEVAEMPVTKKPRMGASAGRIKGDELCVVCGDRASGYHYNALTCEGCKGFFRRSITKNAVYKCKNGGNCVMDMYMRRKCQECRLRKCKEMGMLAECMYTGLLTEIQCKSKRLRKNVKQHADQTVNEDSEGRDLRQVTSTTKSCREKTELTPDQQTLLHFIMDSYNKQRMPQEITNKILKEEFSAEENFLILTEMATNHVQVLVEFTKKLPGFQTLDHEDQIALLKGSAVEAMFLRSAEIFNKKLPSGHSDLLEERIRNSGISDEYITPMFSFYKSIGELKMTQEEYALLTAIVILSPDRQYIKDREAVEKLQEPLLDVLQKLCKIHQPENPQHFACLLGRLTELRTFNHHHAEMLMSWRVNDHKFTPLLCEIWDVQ

[3] = molecular target: T4, Oxysterols receptor LXR-beta (Homo sapiens, UniProt P55055); type: functional
T4 sequence (P55055 whole entry): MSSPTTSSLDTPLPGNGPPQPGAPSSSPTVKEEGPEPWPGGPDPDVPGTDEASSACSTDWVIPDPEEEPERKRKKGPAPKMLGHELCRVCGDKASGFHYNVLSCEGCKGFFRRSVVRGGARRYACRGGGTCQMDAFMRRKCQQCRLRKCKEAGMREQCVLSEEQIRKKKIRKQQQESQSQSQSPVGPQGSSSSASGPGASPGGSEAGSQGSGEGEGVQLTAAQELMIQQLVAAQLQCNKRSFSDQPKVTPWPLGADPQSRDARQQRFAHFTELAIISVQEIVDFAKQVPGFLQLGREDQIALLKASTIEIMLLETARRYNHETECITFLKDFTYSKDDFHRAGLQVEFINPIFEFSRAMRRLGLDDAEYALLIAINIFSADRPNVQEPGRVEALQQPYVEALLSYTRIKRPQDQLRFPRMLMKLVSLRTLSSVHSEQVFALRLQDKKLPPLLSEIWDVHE

[4] = molecular target: T5, Alpha-2A adrenergic receptor (Homo sapiens, UniProt P08913)
T5 sequence (P08913 whole entry): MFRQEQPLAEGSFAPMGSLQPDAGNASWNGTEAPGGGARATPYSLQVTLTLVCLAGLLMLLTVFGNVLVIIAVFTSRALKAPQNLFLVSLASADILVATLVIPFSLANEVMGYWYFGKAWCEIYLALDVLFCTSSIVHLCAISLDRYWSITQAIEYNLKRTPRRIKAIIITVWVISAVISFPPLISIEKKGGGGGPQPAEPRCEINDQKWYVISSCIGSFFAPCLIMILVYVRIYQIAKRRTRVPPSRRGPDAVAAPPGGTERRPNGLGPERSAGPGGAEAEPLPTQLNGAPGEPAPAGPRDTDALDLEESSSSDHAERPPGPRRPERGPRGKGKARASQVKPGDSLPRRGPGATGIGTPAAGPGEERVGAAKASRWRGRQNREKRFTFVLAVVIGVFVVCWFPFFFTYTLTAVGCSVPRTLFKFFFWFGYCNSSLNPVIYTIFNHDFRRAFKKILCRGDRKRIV

D(1A) dopamine receptor [5] = molecular target: T6, D(1A) dopamine receptor (Homo sapiens, UniProt P21728)
T6 sequence (P21728 whole entry): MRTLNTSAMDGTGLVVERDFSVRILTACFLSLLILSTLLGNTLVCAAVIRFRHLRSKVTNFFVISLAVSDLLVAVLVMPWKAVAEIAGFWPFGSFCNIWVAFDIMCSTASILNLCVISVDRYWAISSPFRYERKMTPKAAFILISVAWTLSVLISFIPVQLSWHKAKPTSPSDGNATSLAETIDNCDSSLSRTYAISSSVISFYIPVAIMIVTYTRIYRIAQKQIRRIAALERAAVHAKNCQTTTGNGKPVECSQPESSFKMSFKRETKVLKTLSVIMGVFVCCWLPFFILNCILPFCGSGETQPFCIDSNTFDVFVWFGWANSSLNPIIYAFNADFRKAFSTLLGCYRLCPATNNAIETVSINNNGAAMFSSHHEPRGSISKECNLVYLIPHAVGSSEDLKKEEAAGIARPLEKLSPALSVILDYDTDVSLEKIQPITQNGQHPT

[6] = molecular target: T7, Muscarinic acetylcholine receptor M2 (Homo sapiens, UniProt P08172)
T7 sequence (P08172 whole entry): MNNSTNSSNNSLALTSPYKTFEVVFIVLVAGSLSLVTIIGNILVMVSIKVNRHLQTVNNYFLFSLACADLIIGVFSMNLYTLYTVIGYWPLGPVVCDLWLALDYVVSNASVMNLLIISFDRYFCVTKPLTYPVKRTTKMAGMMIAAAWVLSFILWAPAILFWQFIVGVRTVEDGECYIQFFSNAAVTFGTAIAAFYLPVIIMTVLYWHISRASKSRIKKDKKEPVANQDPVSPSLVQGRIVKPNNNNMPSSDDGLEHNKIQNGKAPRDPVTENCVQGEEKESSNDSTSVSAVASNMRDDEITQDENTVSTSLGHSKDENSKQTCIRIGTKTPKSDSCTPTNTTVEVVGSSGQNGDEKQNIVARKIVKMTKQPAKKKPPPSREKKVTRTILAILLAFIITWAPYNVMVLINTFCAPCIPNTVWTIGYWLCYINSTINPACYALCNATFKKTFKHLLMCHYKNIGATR

D(1A) dopamine receptor [7] = molecular target: T6, D(1A) dopamine receptor; remark: listed apart in the source
Note: assay procedure not described here.

| SMILES | AC50 [1] [µM] | AC50 [2] [µM] | AC50 (Bile acid receptor) [µM] | AC50 [3] [µM] | AC50 [4] [µM] | AC50 (D(1A) dopamine receptor [5]) [µM] | AC50 [6] [µM] | AC50 (D(1A) dopamine receptor [7]) [µM] |
| --- | --- | --- | --- | --- | --- | --- | --- | --- |
| Cc1c(C(=O)NN2CCCCC2)nn(-c2ccc(Cl)cc2Cl)c1-c1ccc(Cl)cc1 [RIMONABANT] | > 30 | > 30 | > 30 | > 30 |  |  |  |  |
| Cc1cn([C@H]2C=C[C@@H](CO)O2)c(=O)[nH]c1=O [STAVUDINE] |  |  |  |  | > 30 | > 30 | > 30 |  |
| CN1C(C(=O)Nc2ccccn2)=C(O)c2sc(Cl)cc2S1(=O)=O [LORNOXICAM] | > 30 | > 30 | > 30 | > 30 |  |  |  |  |
| CCc1oc2ccccc2c1C(=O)c1cc(I)c(O)c(I)c1 [BENZIODARONE] |  |  |  |  |  |  |  | > 30 |
| O=C(OCC(O)CO)c1ccccc1Nc1ccnc2cc(Cl)ccc12 (stereo unspecified) [GLAFENINE] |  |  |  |  | > 30 | > 30 | > 30 |  |
| CC[C@H]1OC(=O)[C@H](C)[C@@H](O[C@H]2C[C@@](C)(OC)[C@@H](O)[C@H](C)O2)[C@H](C)[C@@H](O[C@@H]2O[C@H](C)C[C@H](N(C)C)[C@H]2O)[C@](C)(O)C[C@@H](C)CN(C)[C@H](C)[C@@H](O)[C@]1(C)O [AZITHROMYCIN] |  |  |  |  |  |  |  | > 30 |
